From patent US5691348A, “Pyridyl imidazole derivatives and processes for the preparation thereof” (Daewoo Electronics Co., Ltd., priority 1994, dated 1997)
Values belong to the compound of their own block, whether it stands above or below them.

Columns and labels:
angiotensin II receptor = assay: Angiotensin II receptor binding assay ([3H] angiotensin II); set-up: species or system rat (Sprague-Dawley adrenal cortex/medulla; Wistar liver); settings: 25° C., 60 minutes, test concentration not given
Protocol: 1. Angiotensin II receptor binding assay
In accordance with the procedure disclosed in Chiu, A. T. et al., Eur. J. Pharm., 157, 13(1981), a ligand marked with a radioisotope was reacted with an angiotensin II receptor and the reactant was filtered with a glass fiber to remove unreacted ligand. After washing the filter, the amount of the remaining isotope was measured to determine the binding activity of the ligand, as described below in detail.
Sprague-Dawley rats and Wistar rats of 250 to 350 g (from The Korea Research Institute of Chemical Technology) were tested and the test procedures were carried out at 4° C., unless otherwise specified. Adrenal gland was separated from the Sprague-Dawley rats (liver, in the case of Wistar rats) into cortex and medulla. The separated adrenal cortex and medulla were washed with a sucrose buffer solution (0.2M sucrose, 1 mM EDTA, 10 mM Tris, Ph 7.2) and homogenized in the same buffer solution by using a Teflon pestle and a Brinkmann homogenizer. The homogenates were centrifuged at 3,000× g for 10 minutes to remove precipitates and further centrifuged at 12,000× g for 13 minutes. The final supernatants were centrifuged at 102,000× g for 1 hour to obtain precipitates, which were washed with a Tris buffer solution (50 mM Tris, 5 mM MgCl2, pH 7.2) and recentrifuged at 102,000× g for 1 hour. The resulting precipitates were immediately processed at the following step or stored at -70° C.
The precipitates were suspended in a Tris buffer solution. The amount of protein was determined by using a Bio-Rad DC protein analyzing kit and the protein concentration was adjusted to the amounts of: 0.2 to 0.3 mg/ml (Sprague-Dawley rat: adrenal cortex), 1.5 to 2.0 mg/ml (Sprague-Dawley rat: adrenal medulla), and 1.5 to 2.0 mg/ml (Wistar rat: liver). To the suspension, bovine serum albumin(BSA) was added to a concentration of 0.25 wt % and the resultant was immediately processed at the following step or stored at -70° C.
50 μl (based on ligand) of [^3 H] angiotensin II (NEN, NET-446) and 10 μl of each of the test compounds with various concentrations were added to the buffer solution (50 mM Tris (pH 7.2), 5 mM MgCl2, 0.25% BSA) to adjust the final volume to be 0.5 ml. 100 μl of the receptor suspension was added thereto and the resulting solution was reacted for 60 minutes while stirring in a water bath at 25° C. 3 ml of cold buffer solution for analysis was added to cease the reaction. The isotope which was bound to the receptor was isolated from the resultant by using Brandel Cell Harvester System with Whatman glass fiber GF/C. After washing the filter, the radioactivity of the filter was determined by using a liquid scintillation counter. Binding inhibition(%) of the test compound was calculated as follows:
Binding Inhibition(%)=[{(T-B)-(S-B)}/(T-B)]×100
wherein T is the radioactivity (cpm) of the reaction product untreated with the test compound, S is the radioactivity (cpm) of the reaction product treated with the test compound, and B is the radioactivity (cpm) of blank test.

unanesthetized dogs [1] = assay: Blood pressure variation with time in unanesthetized dogs; type: in vivo, dog; settings: for Maximum Blood Pressure Lowering Effect: 3 mg, oral
Protocol: (§1) A number of dog was fed freely in a feeding room and those weighing 7 to 12 kg in good health were selected regardless of their gender.
(§2) The test dog was anesthetized with 30 mg/kg of pentobarbital sodium by intravenous injection and the left femoral artery and femoral vein were separated carefully. Silicone catheter, specially prepared and filled with saline treated with heparin (1,000 IU/ml), was cannulated into the blood vessels. After the surgery, the dog was constrained to measure the blood pressure continuously with Gould 2000 physiograph adapted to a Grass P23XL pressure transducer; and the heart rate was monitored with ECG/Biotacho amplifier. The dog was tested at least 2 days after the surgery.
10 mg/kg of furosemide was injected intramuscularly 18 hours (in case of intravenous injection, 2 hours) before the beginning of the test (administration of the test compound) to improve the activity of renin in blood plasma. After the injection of furosemide, neither food nor water was provided. […] The blood pressure and heart rate were measured up to 8 hours after the administration of each test compound.

unanesthetized dogs [2] = assay: Maximum blood pressure lowering effect in unanesthetized dogs at different amounts; type: in vivo, dog
Protocol: as §1, §2
10 mg/kg of furosemide was injected intramuscularly 18 hours (in case of intravenous injection, 2 hours) before the beginning of the test (administration of the test compound) to improve the activity of renin in blood plasma. After the injection of furosemide, neither food nor water was provided. The test compound was suspended in Tween 80 and administered in an amount of 20 mg/kg orally. The blood pressure and heart rate were measured up to 8 hours after the administration of each test compound.
The maximum blood pressure lowering effect of the present compounds and the control compounds were determined in different amounts of administration using the same method as (i) and the results are given in Table 4.

renal hypertensive rat [3] = assay: Blood pressure lowering effect in renal hypertension; type: in vivo, Sprague-Dawley rat; settings: intravenous or oral (not specified)
Source text: (§3) To induce renal hypertension, left renal artery of 4 week-old male Sprague-Dawley rat (from The Korea Research Institute of Chemical Technology) was ligated. The rat was anesthetized with ether and the surgical region on the left abdomen of the rat was shaved, disinfected, and then incised about 1 cm vertically. The renal artery near abdominal aorta was isolated carefully from surrounding tissues and veins, and then ligated completely with a suture (4/0 sterile surgical silk). The muscular strata and skin of the surgical area were sutured with a suture (4/0 sterile surgical silk). The surgical region was disinfected to prevent infection and thereafter, 200 to 250 mg/kg/day of cephazolin sodium was injected intramuscularly for 2 days. 6 to 8 days after the ligation, rats showing systolic pressure of more than 180 mmHg were selected for renal hypertension test. The blood pressure was determined by a tail-cuff method from the tail under unanesthetized condition (Gerold, M. et al., Arzneimittel-Forsch., 18, 1285(1968)).
(§4) Each of the compounds to be tested was administered intravenously or orally into the renal hypertensive rat. The blood pressure of the rat was determined by direct method (Chiu, A. T. et al., J. Pharmacol. Exp. Ther., 250, 867(1989)) using a catheter. The rat was anesthetized with ketamine hydrochloride (125 mg/kg, i.p.) and a catheter was filled with saline and inserted into a carotid artery and […]. The surgical area was sutured with a metal clip. The rat was relaxed at least 3 hours and the catheter in the carotid artery was adapted to an isotec pressure transducer to determine the blood pressure and heart rate with a physiograph (Linearcorder WR3310). After the blood pressure was stabilized, the test compound was administered intravenously or orally. For intravenous administration, the administered volume and washing volume were 1.0 ml/kg and 0.2 ml, respectively. The blood pressure and heart rate were measured in regular intervals up to 24 hours after the administration of the test compound and compared with those measured after the administration of the control compound Losartan.
(§5) The test compound was dissolved in 0.05N KOH for intravenous administration and suspended in Tween 80 for oral administration.

renal hypertensive rat [4] = assay: Blood pressure lowering effect with respect to dose (renal hypertensive rats); type: in vivo, Sprague-Dawley rat; settings: oral
Source text: as §3, §4, §5
The present compounds, Losartan(Dup 753) and the Merck compound were administrated orally to rats in 10, 3 and 1 mg/kg under the same condition as in (ii) and the blood pressure lowering effect was determined.

SMILES: CCCCc1nc2cc(-c3cc[n+]([O-])cc3)c(CO)nc2n1Cc1ccc(-c2ccccc2-c2nn[nH]n2)cc1 [Example 2, 2-Butyl-5-hyroxymethyl-6-(1-oxy-pyridin-4-yl)-3-[2'-(1H-tetrazol-5-yl)-biphenyl-4-ylmethyl]-3H-imidazo[4,5-b]pyridine]
Binding Inhibition (angiotensin II receptor): 96.9%

SMILES: CCCCc1nc2cc(-c3cccc[n+]3[O-])c(C(=O)OC)nc2n1Cc1ccc(-c2ccccc2-c2nn[nH]n2)cc1 [Example 4, 2-Butyl-5-methoxycarbonyl-6-(1-oxy-pyridin-2-yl)-3-[2'-(1H-tetrazol-5-yl)-biphenyl-4-ylmethyl]-3H-imidazo[4,5-b]pyridine]
Binding Inhibition (angiotensin II receptor): 92.1%

SMILES: CCCCc1nc(Cl)c(CO)n1Cc1ccc(-c2ccccc2-c2nn[nH]n2)cc1 [Losartan (Dup 753), Losartan, reference compound]
Maximum Blood Pressure Lowering Effect (unanesthetized dogs [1]; 0.5 hr): -11.0% | Maximum Blood Pressure Lowering Effect (unanesthetized dogs [1]; 1 hr): -12.3% | Maximum Blood Pressure Lowering Effect (unanesthetized dogs [1]; 2 hr): -12.8% | Maximum Blood Pressure Lowering Effect (unanesthetized dogs [1]; 4 hr): -9.9% | Maximum Blood Pressure Lowering Effect (unanesthetized dogs [1]; 6 hr): -10.1% | Maximum Blood Pressure Lowering Effect (unanesthetized dogs [1]; 8 hr): -8.2% | time for which the maximum blood pressure lowering effect lasted after the administration (unanesthetized dogs [1]; Table 3, present compounds 1.0 mg, control compound 3 mg): up to 2 hours | Maximum Blood Pressure Lowering Effect (unanesthetized dogs [2]; 3 mg/kg): -13% | Maximum Blood Pressure Lowering Effect (unanesthetized dogs [2]; 10 mg/kg): -23% | Binding Inhibition (angiotensin II receptor): 48.0% | Maximum Blood Pressure Lowering Effect (renal hypertensive rat [3]; Amount 10 mg): -27% | Maximum Blood Pressure Lowering Effect (renal hypertensive rat [4]; 3 mg/kg): -30% | Maximum Blood Pressure Lowering Effect (renal hypertensive rat [4]; 10 mg/kg): -46%

SMILES: CCCCc1nc2cc(-c3cccc[n+]3[O-])c(C(=O)N(CC)CC)nc2n1Cc1ccc(-c2ccccc2-c2nn[nH]n2)cc1 [Example 5, 2-Butyl-6-(1-oxy-pyridin-2-yl)-3-[2'-(1H-tetrazol-5-yl)-biphenyl-4-ylmethyl]-3H-imidazo[4,5-b]pyridin-5-carboxylate Diethylamide]
Binding Inhibition (angiotensin II receptor): 60.3%

More lines, main results first:

Binding Inhibition (angiotensin II receptor): 95.5%
SMILES: CCCCc1nc2cc(-c3cc[n+]([O-])cc3)c(C)nc2n1Cc1ccc(-c2ccccc2-c2nn[nH]n2)cc1 [Example 7, 2-Butyl-5-methyl-6-(1-oxy-pyridin-4-yl)-3-[2'-(1H-tetrazol-5-yl)-biphenyl-4-ylmethyl]-3H-imidazo[4,5-b]pyridine]

Binding Inhibition (angiotensin II receptor): 94.6%
SMILES: CCCCc1nc2cc(-c3ccc[n+]([O-])c3)c(C)nc2n1Cc1ccc(-c2ccccc2-c2nn[nH]n2)cc1 [Example 6, 2-Butyl-5-methyl-6-(1-oxy-pyridin-3-yl)-3-[2'-(1H-tetrazol-5-yl)-biphenyl-4-ylmethyl]-3H-imidazo[4,5-b]pyridine]
Maximum Blood Pressure Lowering Effect (unanesthetized dogs [2]; 0.3 mg/kg): -9% | Maximum Blood Pressure Lowering Effect (unanesthetized dogs [2]; 1 mg/kg): -12% | Maximum Blood Pressure Lowering Effect (renal hypertensive rat [3]; Amount 3 mg): -38%
